Biological target: T1, Sortase A (Streptococcus mutans, UniProt Q8CM62)
T1 construct: gene srtA
T1 sequence (Q8CM62 1-246): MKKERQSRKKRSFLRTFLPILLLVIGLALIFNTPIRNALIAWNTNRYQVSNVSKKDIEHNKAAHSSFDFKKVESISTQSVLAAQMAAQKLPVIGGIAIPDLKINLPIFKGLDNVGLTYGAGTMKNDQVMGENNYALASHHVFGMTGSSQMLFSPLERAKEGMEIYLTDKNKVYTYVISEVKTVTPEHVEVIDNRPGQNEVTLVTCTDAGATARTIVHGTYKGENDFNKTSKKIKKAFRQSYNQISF
Experiment: fluorescent peptide (Dabcyl-QALPETGEE-Edans) cleavage assay with purified sortase A; positive control inhibitor
Format: biochemical

`O=C(O)c1cc[c]([Hg][OH])cc1` [pHMB, ρ-hydroxymercuribenzoic acid] was tested, and the IC50 was 24.5 ± 4.1 µM.

Source: PMC7335202, “A quaternary ammonium silane antimicrobial triggers bacterial membrane and biofilm destruction” (Scientific Reports, 2020)
